# Where a name gives a salt, the structure may show the parent alone. Read-outs that look alike come from different tables or passages of the source.
# Assays:
# [1] = test system: HUVECs; assay: XTT cell viability assay (Example 106); type: cell-based, human; details: 72 hours, read-out: Inhibition of HUVEC cell prolifiration (IC50)
# Protocol: Some compounds described by the general structure (B) were tested for cell viability. XTT assay: HUVECs were seeded at 10,000 cells/well of a tissue culture treated 96-well plate treated with collagen type I and grown overnight in the complete EGM-2 media as described above. The following morning, the inhibitors were serial diluted with DMSO and added to the cells with a final DMSO concentration of 1%. After 72 hours cell viability was measured with an XTT assay (Sigma, St. Louis, Mo.). The cells were also photographed to compare morphological differences to the XTT trends observed. Determination of the IC50 values was performed with quantitative software (Prism software package, GraphPad Software, San Diego Calif.).
# [2] = test system: p-MEK and p-ERK levels in HUVECs; assay: Western Blot, inhibition of MAPK pathway in cellular assay (Example 105); type: cell-based, human; details: 50 ng/ml VEGF or FGF
# Protocol: Some compounds described by the general structure (B) were tested for inhibition of MAPK pathway in cellular assay. Western Blot: Early passage primary human umbilical vein endothelial cells (HUVECs) were maintained in EGM-2 containing SingleQuots (Cambrex, East Rutherford, N.J.), 10% FBS, 10 mM HEPES, and 50 μg/ml gentamicin. Prior to treatment of the cells with inhibitor, the HUVECs were starved for 18 h by replacing serum-containing complete media with serum-free and SingleQuot-free media. The starved cells were pre-treated with inhibitors for 60 min at various concentrations (0-20 μM). Next the HUVECs were treated with 50 ng/ml VEGF or FGF (Peprotech, Rocky Hill, N.J.) for 6 min and the cells were immediately washed with ice-cold PBS. Cells were lysed with ice-cold RIPA buffer containing 100 mM Tris pH 7.5, 150 mM NaCl, 1 mM EDTA, 1% deoxycholate, 1% Triton X-100, 0.1% SDS, 2 mM PMSF, one Complete-Mini protease inhibitor tablet (Roche, Indianapolis, Ind.; 1 tablet/7 ml of lysis buffer) and the phophatase inhibitors NaF (500 mM) and orthovanadate (1 mM). The cells were scraped and lysates transferred and centrifuged at 15,000 g for 10 main. Supernatants were transferred to new tubes and protein concentration was quantitated using the BCA protein reagent (Pierce, Rockford, Ill.). Cell lysates containing 20 μg of total protein were separated by 10% SDS-PAGE, transferred to nitrocellulose, and blocked in 5% milk in TBST. Anti phospho-ERK Thr 202/Tyr 204 (Cell Signaling, Beverly, Mass.), anti-phospho-MEK Ser217/221 (Cell Signaling), and c-Raf (BD Biosciences Pharmingen, San Diego, Calif.) used as primary antibodies were detected with horseradish peroxidase-conjugated goat anti-mouse or rabbit secondary antibodies and bands were visualized using the SuperSignal West Pico chemiluminescence reagent system (Pierce) and Kodak X-ray film (Rochester, N.Y.).
SMILES,"IC50 ([1]; Homo sapiens, HUVEC) [µM]",further results
"CNC(=O)c1cc(Oc2cccc(-c3nnc(Nc4ccc(Cl)c(C(F)(F)F)c4)[nH]3)c2)ccn1 [4-{3-[5-(4-chloro-3-trifluoromethyl-phenylamino)-4H-[1,2,4]triazol-3-yl]-phenoxy}-pyridine-2-carboxylic acid methylamide trifluoroacetic acid salt]",> 20,–
"Nc1cc(Oc2ccc(-c3nnc(Nc4ccc(OC(F)(F)F)cc4)[nH]3)cc2)nc(N)n1 [6-{4-[5-(4-trifluoromethoxy-phenylamino)-4H-[1,2,4]triazol-3-yl]-phenoxy}-pyrimidine-2,4-diamine trifluoroacetic acid salt]",6,–
"O=C(Nc1nnc(-c2ccc(Oc3cccnc3)cc2)o1)c1ccc(F)c(C(F)(F)F)c1 [4-Fluoro-N-{5-[4-(pyridin-3-yloxy)phenyl]-1,3,4-oxadiazol-2-yl}-3-(trifluoromethyl)-benzamide]",~20,Western Blot ([2]; at 10 uM): active at 10 uM
"FC(F)(F)c1cc(Nc2nnc(-c3ccc(Oc4cccnc4)cc3)o2)ccc1Cl [N-[4-chloro-3-(trifluoromethyl)phenyl]-5-[4-(pyridin-3-yloxy)phenyl]-1,3,4-oxadiazol-2-amine trifluoroacetate salt]",1.72,Western Blot ([2]; at 5 uM): active at 5 uM
"Nc1cc(Oc2ccc(-c3nnc(Nc4ccc(Cl)cc4)o3)cc2)nc(N)n1 [6-(4-{5-[(4-chlorophenyl)amino]-1,3,4-oxadiazol-2-yl}phenoxy) pyrimidine-2,4-diamine]",2.6,Western Blot ([2]; at 5 uM): active at 5 uM
"O=C(Nc1nnc(-c2ccc(Oc3cccnc3)cc2)o1)c1cccc(C(F)(F)F)c1 [N-{5-[4-(pyridin-3-yloxy)phenyl]-1,3,4-oxadiazol-2-yl}-3-(trifluoromethyl)benzamide]",> 40,Western Blot ([2]; at 10 uM): active at 10 uM
"CNC(=O)c1cc(Oc2ccc(Nc3nnc(-c4ccc(Cl)c(C(F)(F)F)c4)[nH]3)cc2)ccn1 [4-[4-({5-[4-chloro-3-(trifluoromethyl)phenyl]-4H-1,2,4-triazol-3-yl}amino)phenoxy]-N-methylpyridine-2-carboxamide trifluoroacetate salt]",> 40,–
"CNC(=O)c1cc(Oc2ccc(-c3nnc(Nc4ccc(OC(F)(F)F)cc4)[nH]3)cc2)ccn1 [4-{4-[5-(4-trifluoromethoxy-phenylamino)-4H-[1,2,4]triazol-3-yl]-phenoxy}-pyridine-2-carboxylic acid methylamide trifluoroacetic acid salt]",> 40,–
"Nc1cc(Oc2ccc(Nc3nnc(-c4ccc(OC(F)(F)F)cc4)[nH]3)cc2)nc(N)n1 [6-[4-({5-[4-(trifluoromethoxy)-phenyl-4H-1,2,4-triazol-3-yl}amino)phenoxy]pyrimidine-2,4-diamine]",–,Western Blot ([2]; concentration not given): not active; IC50 [1]: 6.58 µM
"FC(F)(F)c1cc(-c2nnc(Nc3ccc(Oc4cccnc4)cc3)[nH]2)ccc1Cl [5-[4-chloro-3-(trifluoromethyl)phenyl]-N-[4-(pyridine-3-yloxy)phenyl]-4H-1,2,4-triazol-3-amine trifluoroacetate salt]",> 40,Western Blot ([2]; at 5 uM): active at 5 uM
"Br.Nc1nnc(-c2ccc(Oc3cccnc3)cc2)o1 [5-[4-(Pyridin-3-yloxy)phenyl]-1,3,4-oxadiazol-2-amine hydrobromide salt]",> 40,Western Blot ([2]; at 10 uM): not active at 10 uM
"O=C(Nc1nnc(-c2ccc(Oc3cccnc3)cc2)o1)c1ccc2c(c1)OC(F)(F)O2 [2,2-Difluoro-N-{5-[4-(pyridin-3-yloxy)phenyl]-1,3,4-oxadiazol-2-yl}-1,3-benzodioxole-5-carboxamide]",> 40,Western Blot ([2]; at 10 uM): not active at 10 uM
"Nc1cc(Oc2ccc(-c3nnc(Nc4cccc(Cl)c4)o3)cc2)nc(N)n1 [6-(4-{5-[(3-chlorophenyl)amino]-1,3,4-oxadiazol-2-yl}phenoxy) pyrimidine-2,4-diamine]",~20,Western Blot ([2]; at 5 uM): active at 5 uM
"O=C(Nc1nnc(-c2ccc(Oc3cccnc3)cc2)o1)c1cc(C(F)(F)F)cc(Cl)c1F [3-Chloro-2-fluoro-N-{5-[4-pyridin-3-yloxy)phenyl]-1,3,4-oxadiazol-2-yl}-5-trifluoromethyl)-benzamide]",> 40,Western Blot ([2]; at 10 uM): not active at 10 uM
"CNC(=O)c1cc(Oc2ccc(-c3nnc(Nc4ccc(Cl)c(C(F)(F)F)c4)[nH]3)cc2)ccn1 [4-{4-[5-(4-chloro-3-trifluoromethyl-phenylamino)-4H-[1,2,4]triazol-3-yl]-phenoxy}-pyridine-2-carboxylic acid methylamide trifluoroacetic acid salt]",2.85,Western Blot ([2]; at 10 uM): active at 10 uM
"Clc1ccc(Nc2nnc(-c3ccc(Oc4cccnc4)cc3)o2)cc1 [5-[4-(Pyridin-3-yloxy)phenyl]-N-[4-chloro-phenyl]-1,3,4-oxadiazol-2-amine]",9.6,Western Blot ([2]; at 10 uM): active at 10 uM
"FC(F)(F)c1cc(-c2nnc(Nc3ccc(Oc4ccncc4)cc3)[nH]2)ccc1Cl [5-[4-chloro-3-(trifluoromethyl)phenyl]-N-[4-(pyridine-4-yloxy)phenyl]-4H-1,2,4-triazol-3-amine trifluoroacetate salt]",> 40,–
"Nc1ccc(Oc2ccc(Nc3nnc(-c4ccc(Cl)c(C(F)(F)F)c4)[nH]3)cc2)nn1 [6-[4-({5-[4-chloro-3-(trifluoromethyl)phenyl]-4H-1,2,4-triazol-3-yl}amino)phenoxy]pyridazin-3-amine trifluoroacetate salt]",> 40,Western Blot ([2]; at 5 uM): active at 5 uM
"Nc1ccc(Oc2ccc(-c3nnc(Nc4ccc(Cl)c(C(F)(F)F)c4)[nH]3)cc2)nn1 [6-{4-[5-(4-chloro-3-trifluoromethyl-phenylamino)-4H-[1,2,4]triazol-3-yl]-phenoxy}-pyridazin-3-ylamine trifluoroacetic acid salt]",1.79,–
"O=C(Nc1nnc(-c2ccc(Oc3cccnc3)cc2)o1)c1ccccc1OC(F)(F)F [N-{5-[4-(pyridin-3-yloxy)phenyl]-1,3,4-oxadiazol-2-yl}-2-(trifluoromethoxy)-benzamide]",~20,Western Blot ([2]; at 10 uM): not active at 10 uM
"FC(F)(F)c1cc(-c2nnc(Nc3ccc(Oc4cncnc4)cc3)[nH]2)ccc1Cl [5-[4-chloro-3-(trifluoromethyl)phenyl]-N-[4-(pyrimidin-5-yloxy)phenyl]-4H-1,2,4-triazol-3-anine trifluoroacetate salt]",> 10,Western Blot ([2]; at 5 uM): active at 5 uM
"FC(F)(F)c1cc(Nc2nnc(-c3cccc(Oc4ccncc4)c3)[nH]2)ccc1Cl [(4-chloro-3-trifluoromethyl-phenyl)-{5-[3-(pyridin-4-yloxy)-phenyl]-4H-[1,2,4]triazol-3-yl}-amine trifluoroacetic acid salt]",1.79,Western Blot ([2]; at 5 uM): active at 5 uM
"Nc1ccc(Oc2ccc(-c3nnc(Nc4ccc(OC(F)(F)F)cc4)[nH]3)cc2)nn1 [6-{4-[5-(4-trifluoromethoxy-phenylamino)-4H-[1,2,4]triazol-3-yl]-phenoxy}-pyridazin-3-ylamine trifluoroacetic acid salt]",> 20,–
"FC(F)(F)Oc1ccc(Nc2nnc(-c3ccc(Oc4ccncc4)cc3)[nH]2)cc1 [{5-[4-(pyridin-4-yloxy)-phenyl]-4H-[1,2,4]triazol-3-yl]-(4-trifluoromethoxy-phenyl)-amine trifluoroacetic acid salt]",> 40,–
"CNC(=O)c1cc(Oc2ccc(Nc3nnc(-c4ccc(OC(F)(F)F)cc4)[nH]3)cc2)ccn1 [4-{4-[5-(4-trifluoromethoxy-phenyl)-4H-[1,2,4]triazol-3-ylamino]-phenoxy}-pyridine-2-carboxylic acid methylamide trifluoroacetic acid salt]",2.2,–
"FC(F)(F)c1ccc(Cl)c(Nc2nnc(-c3ccc(Oc4cncnc4)cc3)o2)c1 [5-[4-(Pyrimidin-5-yloxy)phenyl]-N-[2-chloro-5-(trifluoromethyl)-phenyl]-1,3,4-oxadiazol-2-amine]",~20,–
"Nc1cc(Oc2ccc(-c3nnc(Nc4cc(C(F)(F)F)ccc4Cl)o3)cc2)nc(N)n1 [6-(4-{5-[(2-chloro-5-trifluoromethyl-phenyl)amino]-1,3,4-oxadiazol-2-yl}phenoxy)pyrimidine-2,4-diamine]",~20,–

# From patent US8372971B2, “Heterocyclic compounds and methods of use” (TargeGen, Inc., priority 2004, dated 2013)
